The test system of assay [1] is LPS-induced release of endogenous TNFα from human PBMCs from healthy donors. The experiment in a line: ELISA-based TNFα release assay, LPS-induced, PBMCs from healthy donors. The class given is cell-based. The note with it: PBMC, Batimastat 10 μM, LPS 0.01 ng/ml, 2 hours. On the procedure:
In the following study, ELISA-based TNF& release assays were performed to analyze the inhibitory effects of the antibodies of the invention on LPS-induced release of endogenous TNF& from primary human material obtained from healthy donors using peripheral blood mononuclear cells (PBMCs).
In brief, on day 1, Nunc black MaxiSorp® 96-well plates (Thermo Fisher Scientific, USA) were coated overnight with 100 μl per well of mouse anti-human TNFα capture antibody (provided as part of the DuoSet ELISA kit) at 4 μg/ml TBS at 4° C. On day 2, the capture antibody solution was removed and MaxiSorp® plates were blocked with 300 μl per well of TBS, 1% BSA at room temperature for 3 hours. […] Using an infinite M1000 (Tecan Group, Switzerland) microplate reader, the fluorescence of each well was collected at an excitation wavelength of 435 nm and an emission wavelength of 555 nm.

Assay [2] addresses T1, human iRhom2 variant hiR2-FL-K536A-T7 (Homo sapiens, UniProt Q6PJF5, K536A).
T1 construct: expressed in transfected cells; host or cells: immortalized iRhom1/2-/- DKO mouse embryonic fibroblasts, pMSCV retroviral infection
T1 sequence (Q6PJF5 1-856 K536A): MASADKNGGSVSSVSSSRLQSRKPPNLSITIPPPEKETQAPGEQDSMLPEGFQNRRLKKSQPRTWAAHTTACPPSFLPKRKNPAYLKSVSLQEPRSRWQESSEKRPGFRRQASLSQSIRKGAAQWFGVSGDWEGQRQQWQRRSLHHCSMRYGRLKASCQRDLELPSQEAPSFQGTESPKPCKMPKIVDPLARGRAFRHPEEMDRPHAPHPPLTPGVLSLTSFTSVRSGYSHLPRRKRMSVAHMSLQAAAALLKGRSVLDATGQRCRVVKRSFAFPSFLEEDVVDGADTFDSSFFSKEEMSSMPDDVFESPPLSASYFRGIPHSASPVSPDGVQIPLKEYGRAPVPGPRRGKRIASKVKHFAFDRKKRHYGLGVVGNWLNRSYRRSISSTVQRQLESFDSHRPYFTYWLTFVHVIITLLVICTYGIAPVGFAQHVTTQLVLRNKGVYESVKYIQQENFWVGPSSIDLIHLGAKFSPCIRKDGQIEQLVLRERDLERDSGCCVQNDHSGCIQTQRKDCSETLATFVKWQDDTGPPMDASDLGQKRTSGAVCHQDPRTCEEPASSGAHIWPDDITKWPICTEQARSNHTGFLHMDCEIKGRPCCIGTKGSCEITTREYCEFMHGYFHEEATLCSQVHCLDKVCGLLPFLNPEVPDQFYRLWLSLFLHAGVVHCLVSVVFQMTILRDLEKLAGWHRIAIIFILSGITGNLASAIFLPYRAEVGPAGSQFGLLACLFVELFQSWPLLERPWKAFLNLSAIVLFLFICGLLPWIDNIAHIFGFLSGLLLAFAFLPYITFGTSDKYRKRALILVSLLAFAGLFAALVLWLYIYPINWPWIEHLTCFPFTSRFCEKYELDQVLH
The experiment in a line: FACS epitope mapping on MEF-DKO-hiR2-FL-K536A-T7 cells. The note with it: antibody at 3 μg/ml, compared with MEF-DKO-hiR2-FL-WT-T7 cells. Format: binding. The source says:
This example describes the generation of iRhom1/2−/− DKO MEF populations expressing the 137 single amino acid substitution or deletion variants as well as their characterization in terms of cell surface localization and functional activity as indicators of proper protein conformation. Subsequently, binding analyses of the humanized antibodies 16-B-03, 16-B-05, 16-B-07, 23-B-04, 42-B-02 and 42-B-04 of the invention on the entire panel of 137 engineered MEF populations expressing human iRhom2 variants with single amino acid substitutions or deletions are described.
In brief, on day 1, Phoenix-ECO cells (American Type Culture Collection, USA) were seeded on 6-well tissue culture plates (Greiner, Germany) in standard growth medium at 8×10^5 cells per well and kept overnight at 37° C., 5% CO2. On day 2, the medium was replaced by fresh medium supplemented with chloroquine (Sigma-Aldrich, USA) at a final concentration of 25 μM. […]

One may read the inhibition as how much of the control response was suppressed. A higher inhibition goes with a response far below the control. `CNC(=O)[C@H](Cc1ccccc1)NC(=O)[C@H](CC(C)C)[C@H](CSc1cccs1)C(=O)NO` [Batimastat] returned an inhibition at 10 µM in assay [1] of 98.9%.

B1: 42-B-02: humanized antibody binding human iRhom2; HCVD SEQ ID NO 33, LCVD SEQ ID NO 37 (antibody, V domains shown)
VH: QVTLRESGPALVKPTQTLTLTCTFSGFSLSTFGRGVGWIRQPPGKALEWLAHIWWDDEKYYNSALKSRLTISKDTSKNQVVLTITNMDPVDTATYYCARIQNYGSNYWYFDVWGQGTLVTVSS
VL: AIQLTQSPSSLSASVGDRVTITCRASSRISYMFWYQQKPGKAPKVLIYDTSNLASGVPSRFSGSGSGTDYTLTISSLQPEDFATYYCQQWNSYPLTFGQGTKLEIK
modifications: antibody sequences
Turning to B1, in assay [2], the “effect of substitution of lysine 536 of human iRhom2 by alanine on antibody binding (MEF-DKO-hiR2-FL-K536A-T7 cells)” value is on record as “strongly impairs”.
